Assay results as given in patent US20210292330A1, “PYRROLIDINE-FUSED HETEROCYCLES” (Erasca, Inc., priority 2020, published 2021).

Molecular target: T1, KRAS 4B G12C protein (Homo sapiens, UniProt P01116, G12C)
T1 construct: This protein contained 188 amino acids in total, including an N-terminal 6-Histidine tag; made in house; host or cells: E. coli BL21
Test: In vitro covalent adduct formation (CAF) assay by LC-MS
Assay type: binding
Conditions: compound 10 μM, protein 5 μM, 22° C., percentage of protein bound by the compound
Protocol: In vitro covalent adduct formation assay: Covalent adduct formation (CAF) reactions between Cys12 of the KRAS 4B G12C protein and some of the compounds of Table 1 were measured in vitro using liquid chromatography-mass spectrometry (LC-MS).
Recombinant Human KRAS 4B protein containing the G12C mutation was used in compound screening experiments. This protein contained 188 amino acids in total, including an N-terminal 6-Histidine tag, followed by a Tobacco Etch Virus (TEV) tag, followed by residues 1-169 of the native KRAS 4B sequence. The exact mass of the protein was 21,310 Da as determined by mass spectrometry. The full amino acid sequence is shown below:
The recombinant protein was expressed in E. coli BL21 cells and purified using affinity chromatography via a Ni-NTA column. […] Pure KRAS 4B G12C protein was diluted to a concentration of 5 μM in Tris Buffered Saline, pH 7.4. The compounds were dissolved in DMSO and added to the diluted protein to make a 10 μM concentration. The total DMSO concentration in the reaction was 4%. The reaction was mixed by pipetting and incubated at 22° C. for one hour. Aliquots of the reaction were taken over time and diluted 2:1 in 0.1% formic acid. The intact mass of the protein samples was measured by LC-MS using a QExactive+ mass spectrometer (Thermo Scientific). An amount of 500 ng total protein was injected onto a C8 reverse phase column, eluted with a seven-minute gradient of 30%-90% acetonitrile/0.1% formic acid, and analyzed for intact mass by the mass spectrometer. Adducts identified were confirmed to be within 1 Dalton of the expected mass, and the relative ratios of free:adduct protein were used to quantify the percentage of protein bound by the compound. CAF reactions were run in duplicate, with a typical variability of ±5%.

SMILES | CAF (10 minutes/60 minutes) at 10 micromolar: 10 minutes | CAF (10 minutes/60 minutes) at 10 micromolar: 60 minutes
C=CC(=O)N1CCN(c2nc(OC[C@@H]3CCCN3C)nc3c2CN(C2CCc4ccccc42)C3)C[C@@H]1Cc1ncc[nH]1 (stereo partly drawn) [1-224, 1-((2S)-2-((1H-imidazol-2-yl)methyl)-4-(6-(2,3-dihydro-1H-inden-1-yl)-2-(((S)-1-methylpyrrolidin-2-yl)methoxy)-6,7-dihydro-5H-pyrrolo[3,4-d]pyrimidin-4-yl)piperazin-1-yl)prop-2-en-1-one] | 0%/ 0% | 0%/ 0%
C=CC(=O)N1CCN(c2nnc(OC)c3c2CN(Cc2cc(O)ccc2C)C3)[C@@H](C)C1 [1-37] | 0%/ 0% | 0%/ 0%
C=CC(=O)N1CCN(c2nc(Oc3cnc(N)nc3C3CC3)nc3c2CN(C2CCc4ccccc42)C3)C[C@@H]1CC#N (some centres unmarked) [1-207] | 16% | 50%
C=C(F)C(=O)N1CCN(c2nc(OC[C@@H]3CCCN3C)nc3c2CN(C2CCc4cccc(Cl)c42)C3)C[C@@H]1CC#N (some centres unmarked) [1-153] | 46% | 78%
C=CC(=O)N1CCN(c2nc(OC[C@@H]3CCCN3C)nc3c2CN(Cc2ccccc2C(C)CC)C3)C[C@@H]1CC#N (some centres unmarked) [1-188] | 47% | 79%
C=CC(=O)N1CCN(c2nc(OC[C@@H]3CCCN3CC(F)(F)F)nc3c2CN(C2CCc4ccccc42)C3)C[C@@H]1CC#N (some centres unmarked) [1-141] | 51% | 71%
C#CC[C@H]1CN(c2nc(OC[C@@H]3CCCN3C)nc3c2CN(C2CCc4ccccc42)C3)CCN1C(=O)C=C (stereo partly drawn) [1-144, 1-((2S)-4-(6-(2,3-dihydro-1H-inden-1-yl)-2-(((S)-1-methylpyrrolidin-2-yl)methoxy)-6,7-dihydro-5H-pyrrolo[3,4-d]pyrimidin-4-yl)-2-(prop-2-yn-1-yl)piperazin-1-yl)prop-2-en-1-one] | 15% | 35%
C=C(F)C(=O)N1CCN(c2nc(OC[C@@H]3CCCN3C)nc3c2CN(Cc2c(Cl)cccc2OC(F)F)C3)C[C@@H]1CC#N [1-104] | 8% | 48%
C=C(F)C(=O)N1CCN(c2nc(OC[C@@H]3CCCN3C)nc3c2CN(Cc2c(Cl)ccc4nc[nH]c24)C3)C[C@@H]1CC#N [1-320] | 76% | 91%
C=CC(=O)N1CCN(c2nc(OC[C@@H]3CCCN3C)nc3c2CN(Cc2cc(C)ccc2C)C3)C[C@@H]1CC#N [1-70] | 77% | 94%
C=CC(=O)N1CCN(c2nc(OC[C@@H]3CCCN3C3CC(=O)C3)nc3c2CN(C2CCc4ccccc42)C3)C[C@@H]1CC#N (some centres unmarked) [1-208] | 0% | 18%
C=CC(=O)N1CCN(c2nc(OC[C@@H]3CCCN3C)nc3c2CN(Cc2c(Cl)ccc(O)c2C)C3)C[C@@H]1CC#N [1-312] | 95%/ 95% | 95%/ 95%
C=CC(=O)N1CCN(c2nc(OC[C@@H]3CCCN3C)nc3c2CN(Cc2[nH]c(=O)ccc2Cl)C3)[C@@H](C)C1 [1-69, 6-((4-((S)-4-acryloyl-2-methylpiperazin-1-yl)-2-(((S)-1-methylpyrrolidin-2-yl)methoxy)-5,7-dihydro-6H-pyrrolo[3,4-d]pyrimidin-6-yl)methyl)-5-chloropyridin-2(1H)-one] | 0%/ 0% | 0%/ 0%
C=C(F)C(=O)N1CCN(c2nc(OC[C@@H]3CCCN3C)nc3c2CN(Cc2cc(O)c(C)cc2Cl)C3)C[C@@H]1CC#N [1-329] | 2% | 22%
C=CC(=O)N1CCN(c2nc(OC[C@@H]3CCCN3C)nc3c2CN(C2CCc4ccccc42)C3)C[C@@H]1C(O)C(F)(F)F (some centres unmarked) [1-117] | 0% | 4%
C=CC(=O)N1CCN(c2nc(OC[C@@H]3CCCN3Cc3ccccc3)nc3c2CN(C2CCc4ccccc42)C3)C[C@@H]1CC#N (some centres unmarked) [1-199] | 62% | 74%
C=CC(=O)N1CCN(c2nc(OC[C@@H]3CCCN3C)nc3c2CN(C2CCc4ccccc42)C3)C[C@@H]1C(N)=O (stereo partly drawn) [1-159, (2R)-1-acryloyl-4-(6-(2,3-dihydro-1H-inden-1-yl)-2-(((S)-1-methylpyrrolidin-2-yl)methoxy)-6,7-dihydro-5H-pyrrolo[3,4-d]pyrimidin-4-yl)piperazine-2-carboxamide] | 10% | 19%
C=CC(=O)N1CCN(c2nc(OC3CC3)nc3c2CN(C2CCc4ccccc42)C3)C[C@@H]1CC#N (some centres unmarked) [1-152] | 2% | 19%
C=CC(=O)N1CCN(c2nc(OC[C@@H]3CCCN3C)nc3c2CN(Cc2cc(F)cc(F)c2)C3)[C@@H](C)C1 [1-13] | 0%/ 0% | 0%/ 0%
C=CC(=O)N1CCN(c2nc(OC[C@@H]3CCCN3C)nc3c2CN(C2CCCc4ccccc42)C3)C[C@@H]1CC#N (some centres unmarked) [1-52] | 6% | 91%
C=CC(=O)N1C[C@H](C)N(c2nc(OC[C@@H]3CCCN3C)nc3c2CN(Cc2cc(O)ccc2C)C3)C[C@H]1C [1-18] | 21% | 65%
C=CC(=O)N1CCN(c2nc(OC[C@@H]3CCCN3C)nc3c2CN(C2CCc4ccccc42)C3)C[C@@H]1CCO (some centres unmarked) [1-101] | 0% | 1%
C=CC(=O)N1CCN(c2nc(OC[C@@H]3CCCN3C)nc3c2CN(Cc2cc(OC)ccc2Cl)C3)C[C@@H]1CC#N [1-68] | 90% | 97%
CN1CCC[C@H]1COc1nc2c(c(N3CCN(C(=O)C45CC4C5)[C@@H](CC#N)C3)n1)CN(C1CCc3ccccc31)C2 (some centres unmarked) [1-316] | 0%/ 0% | 0%/ 0%
C=CC(=O)N1CCN(c2nc(OC[C@@H]3CCCN3C)nc3c2CN(C2CCOc4ccccc42)C3)C[C@@H]1CC#N (some centres unmarked) [1-86] | 59% | 93%
C=CC(=O)N1CCN(c2nc(OC[C@@H]3CCCN3C)nc3c2CN(Cc2c(Cl)cccc2Cl)C3)C[C@@H]1CC#N [1-44] | 98% | 100%
C=CC(=O)N1CCN(c2nc(OC[C@@H]3CCCN3C)nc3c2CN(Cc2ccccc2C(C)C)C3)C[C@@H]1CC#N [1-168] | 95% | 97%
C=CC(=O)N1CCN(c2nc(OC[C@@H]3CCCN3C)nc3c2CN(Cc2c(C)cccc2O)C3)C[C@@H]1CC#N [1-55] | 78% | 91%
